This is an account of results in patent publication US20240172748A1, “A SYNERGISTIC PLANT GROWTH STIMULANT COMPOSITION COMPRISING MELATONIN AND NITROGENOUS COMPOUNDS FOR IMPROVING PLANT GROWTH AND DECREASING BIOTIC-ABIOTIC STRESSES ON PLANTS” (FERTIS INDIA PVT. LTD., priority 2021, published 2024).

Format in all cases: in vivo
In test [1] the test system is Paddy. As to the kind of experiment: Percentage of protein in grain, field trial on Paddy. Conditions: area 10-meter square, 1 gm/liter foliar application. An excerpt:
Example 11: Percentage of Protein in Grain
(§1) Field trail results on Paddy—Area 10-meter square 1 gm/liter Foliar Application

For test [2], the system named is Paddy. As to the kind of experiment: Total protein content in percentage in grain, field trial on Paddy. Conditions: area 10-meter square, lgm/liter foliar application. From the text:
Example 12: Methionin with Plant Growth Hormone—Total Protein Content in Percentage in Grain
Field trail results on Paddy—Area 10-meter square lgm/liter Foliar Application

The test system of test [3] is Paddy. Briefly: Micronutrient analysis in grain, field trial on Paddy. To be noted: area 10-meter square, 1 gm/liter foliar application.
Excerpt: Example 9: Micronutrient Analysis in Grain
as §1

On to `CNC(=O)NC` [Dimethyl urea], for which the “% of Protein” value in the test with Paddy [1] is on record as 0.0081%.
Same read-out and setting: next, `O=C(Nc1ccccc1)Nc1ccccc1` [Diphenyl urea]: 0.0089%.
In the case of `C=C1C[C@]23C[C@@]1(O)CC[C@H]2[C@@]12C=C[C@H](O)[C@@](C)(C(=O)O1)[C@H]2[C@@H]3C(=O)O` [Gibberellic acid], the “Total Protein content in %” value in the test with Paddy [2] is recorded as 0.084%.
As for `COc1ccc2[nH]cc(CCNC(C)=O)c2c1` [Melatonin], in the test on Paddy [3], the “B (Boron)” value is 40.30 ppm, the “Ca (Calcium)” value is 375.00 ppm, the “Fe (Iron)” value is on record as 300.00 ppm and the “Mg (Magnesium)” value is 609.00 ppm. Besides, in the test on Paddy [3], the “Mn (Manganese)” value is 45.00 ppm and the “Zn (Zinc)” value amounted to 36.50 ppm. Further, the “Total Protein content in %” value in the test on Paddy [2] was 0.076%.
For `O=CNC(=O)NC=O` [NN DFU, N,N′-Diformyl Urea], the “% of Protein” value in the test on Paddy [1] is listed as 0.0117%.
Still for that read-out and setting: next, `NC(N)=O` [Urea]: 0.0063%.
